Measurements published in patent US7713949B2, “Compositions and methods for enhancing paracellular permeability across epithelial and endothelial barriers” (The University of North Carolina at Chapel Hill, priority 2000, dated 2010).

test system: PLC; experiment: not given; details: Perrella et al. 1994; cited from earlier work

Compound | PLC inhibition, previously reported
O=c1oc2cc(O)ccc2cc1[N+](=O)[O-] [7-hydroxy-3-nitrocoumarin] | previously reported not to inhibit PLC

test system: MDCK cell monolayers; experiment: Effect on [14C]-mannitol flux across MDCK cell monolayers; type: cell-based, canine; details: MDCK cells, apical, flux measured between 30 and 60 minutes of treatment, mean ± SD
Description: (§1) For transport studies, MDCK cells, derived from normal proximal epithelial kidney cells of a male cocker spaniel, which is model for transport experiments (Cho, M. J., et al. (1989) Pharm. Res. 6:71-77), were grown on TRANSWELL™ multi-well plates. Each well was seeded with 200,000 cells. The cells were then grown in cell media (MEM with 1% antibiotic, supplemented with 10% fetal bovine serum (FBS) and 1% NEAA), and were maintained at 37° C. and 5% CO2. Confluent cells were grown for four days where they differentiated into epithelial cell monolayers as evidenced by the establishment of a stable TEER.
Mannitol, a hydrophilic compound, cannot readily cross the epithelial membrane, and must transverse the epithelium via the paracellular pathway. Therefore, the flux of mannitol through the epithelium is a reflection of the permeability of the paracellular pathway. Detection of mannitol is accomplished with [^3H] or [^14C] radiolabels.
The integrity of the tight junctions of cell monolayers was monitored with the measurement of TEER prior to the experiment. Transport experiments were initiated by replacing the apical media with 0.5 mL of transport buffer containing compound or vehicle, and [^14C]-mannitol. Concentration of [^14C]-mannitol was 25 μM (55 mCi/mmol). Transport rates were monitored by the measurement of the amount of [^14C]-mannitol accumulated in the basolateral side (1.5 mL) during two 30-minute intervals. The amount of radiolabeled [^14C]-mannitol transported was measured by liquid scintillation counting in a Packard Tri Carb 4000 Series spectrophotometer available from Packard Instrument Company of Meriden, Conn. All transport experiments were carried out under sink conditions (transport experiments were designed such that less than 10% of the total amount of [^14C]-mannitol was present on the basolateral side at any given time). The effect of alkylphosphocholines on the transport of [^14C]-mannitol was normalized to the transport of [^14C]-mannitol in the vehicle-treated cells and was reported as the mean±SD of three experiments performed in triplicate. The EC10x was determined by the concentration of compound that causes a 10-fold increase in mannitol flux with respect to the vehicle treated control.

Compound | EC10x (concentration that increases mannitol flux by ten fold) [µM]
O=c1oc2ccccc2cc1[N+](=O)[O-] [3-nitrocoumarin, reference compound] | 34 ± 5
CCCCCCCCCCCCOP(=O)([O-])OCC[N+](C)(C)C [C12, Dodecylphosphocholine] | 900 ± 100
CCCCCCCCCCCCCCOP(=O)([O-])OCC[N+](C)(C)C [C14] | 91 ± 11
CCCCCCCCCCCCCCCCOP(=O)([O-])OCC[N+](C)(C)C [C16, Hexadecylphosphocholine] | 30 ± 8
CCCCCCCCCCCCCCCCCCOP(=O)([O-])OCC[N+](C)(C)C [C18] | 66 ± 11
CCCCCCCCCCCCCCCCCCCCOP(=O)([O-])OCC[N+](C)(C)C [C20] | 73 ± 1
COc1ccc2c(c1)CCC1C2CCC2(C)C(NCCCCCCN3C(=O)C=CC3=O)CCC12 (centres unmarked) [U-73,122, reference compound] | 6 ± 2

same assay, conditions: interval between 30 and 60 minutes of treatment

Compound | Effect on mannitol flux
COc1ccc2c(c1)CCC1C2CCC2(C)C(NCCCCCCN3C(=O)C=CC3=O)CCC12 (centres unmarked) [U-73,122, reference compound] | increased mannitol flux

test system: PLC-β; experiment: ATP-stimulated PLC activity ([3H]-inositol phosphate accumulation) in MDCK cells; type: cell-based, canine; details: 100 μM ATP, MDCK cells
Description: (§2) Measurement of activity of PLC in MDCK cells was determined by an adaptation of a previously published method (Schachter, J. B., et al. (1997) Neuropharm. 36:1181-1187). MDCK cells were seeded at 400,000 cells/well in a 12-well plate and subsequently cultured for four days. MDCK cell monolayers were then labeled with [^3H]-myo-inositol (1.6 μCi/well in 0.4 ml of inositol-free media) for 24 hours at 37° C. Assays were initiated on labeled cells that were removed from the incubator by immediately supplementing the cells with 100 μl of 250 mM HEPES (pH 7.3), containing 100 mM LiCl with or without compound. Subsequently, the cells were incubated for 30 minutes at 37° C. Immediately after the termination of this incubation, ATP (final concentration: 100 μM) or EGF (20 ng/ml) was added.
(§3) The cells were then incubated at 37° C. for 15 minutes to allow accumulation of [^3H]-inositol phosphates. Incubations were terminated by aspiration of the media and the addition of 1 ml of boiling 10 mM EDTA (pH 8.0). The supernatant was applied to AG1 X8 formate columns for chromatographic isolation of [^3H]-inositol phosphates (Berridge, M. J., et al. (1983) Biochem. J. 212:473-482). The amount of [^3H]-inositol phosphates was measured by liquid scintillation counting in a Packard Tri Carb 4000 Series spectrophotometer. Data from each experiment were normalized to the response observed with 100 μM ATP or 20 ng/ml EGF and were reported as the mean±SD of three experiments performed in triplicate. The IC50 (PLC) was determined by the concentration of compound that causes a 50% decrease in ATP- or EGF-stimulated accumulation of [^3H]-inositol phosphates.
To determine the ability alkylphosphocholines to inhibit PLC activity, the ability of these compounds to inhibit the ATP-mediated increases in the levels of inositol phosphates was determined. The separation between the counts from basal and ATP-stimulated levels of [^3H]-inositol-phosphates from MDCK cell monolayers was, however, marginal (approximately 1.5-fold) for a reliable determination of the ability of alkylphosphocholines to inhibit PLC activity. To increase this separation, MDCK cells that were transfected with a plasmid that encoded the P2Y2 receptor were employed. The P2Y2 receptor is G-protein coupled receptor that activates PLC (Pawelczyk, T., and Lowenstein, J. M. (1993) Biochem. Pharm. 45:493-497). The separation between the counts from basal and ATP-stimulated levels of [^3H]-inositol-phosphates from MDCK monolayers that express P2Y2 receptors increased to approximately a 3-fold difference (counts from basal and ATP-stimulated levels of [^3H]-inositol-phosphates ranged from 200 to 400 and 700 to 1200 cpm, respectively).

Compound | Effect on ATP-stimulated PLC (PLC-β) activity
O=c1oc2ccccc2cc1[N+](=O)[O-] [3-nitrocoumarin, reference compound] | no inhibitory activity toward PLC-β
CCCCCCCCCCCCCCCCOP(=O)([O-])OCC[N+](C)(C)C [C16, Hexadecylphosphocholine] | inhibited ATP-stimulated PLC-β activity
COc1ccc2c(c1)CCC1C2CCC2(C)C(NCCCCCCN3C(=O)C=CC3=O)CCC12 (centres unmarked) [U-73,122, reference compound] | inhibited ATP-stimulated PLC-β activity
COc1ccc2c(c1)CC[C@@H]1[C@@H]2CC[C@]2(C)[C@@H](NCCCCCCN3C(=O)CCC3=O)CC[C@@H]12 [U-73,343, reference compound] | did not decrease TEER or ATP-stimulated PLC activity

same assay, conditions: ATP-stimulated inositol phosphate production

Compound | Full extent of PLC inhibition [%]
CCCCCCCCCCCCOP(=O)([O-])OCC[N+](C)(C)C [C12, Dodecylphosphocholine] | 50

same assay, conditions: MDCK cells, 30 minutes with compound, then 15 minutes stimulation, mean ± SD; read-out: IC50(PLC) (concentration causing fifty percent decrease in ATP- or EGF-stimulated accumulation of [3H]-inositol phosphates)

Compound | IC50 [µM]
O=c1oc2ccccc2cc1[N+](=O)[O-] [3-nitrocoumarin, reference compound] | 21 ± 5
COc1ccc2c(c1)CCC1C2CCC2(C)C(NCCCCCCN3C(=O)C=CC3=O)CCC12 (centres unmarked) [U-73,122, reference compound] | 7 ± 3

Now from value to compound:

IC50 [µM] | Compound
275 ± 135 | CCCCCCCCCCCCOP(=O)([O-])OCC[N+](C)(C)C [C12, Dodecylphosphocholine]
73 ± 9 | CCCCCCCCCCCCCCOP(=O)([O-])OCC[N+](C)(C)C [C14]
36 ± 18 | CCCCCCCCCCCCCCCCOP(=O)([O-])OCC[N+](C)(C)C [C16, Hexadecylphosphocholine]
30 ± 2 | CCCCCCCCCCCCCCCCCCOP(=O)([O-])OCC[N+](C)(C)C [C18]
48 ± 5 | CCCCCCCCCCCCCCCCCCCCOP(=O)([O-])OCC[N+](C)(C)C [C20]

test system: PLC-γ; experiment: EGF-stimulated PLC activity ([3H]-inositol phosphate accumulation) in MDCK cells; type: cell-based, canine; details: 20 ng/ml EGF
Description: as §2, §3

Compound | Effect on EGF-stimulated PLC-γ activity
O=c1oc2ccccc2cc1[N+](=O)[O-] [3-nitrocoumarin, reference compound] | inhibited EGF-stimulated PLC-γ activity
CCCCCCCCCCCCCCCCOP(=O)([O-])OCC[N+](C)(C)C [C16, Hexadecylphosphocholine] | had no effect on EGF-stimulated PLC-γ activity
COc1ccc2c(c1)CCC1C2CCC2(C)C(NCCCCCCN3C(=O)C=CC3=O)CCC12 (centres unmarked) [U-73,122, reference compound] | had no effect on EGF-stimulated PLC-γ activity

test system: not given; experiment: not given; details: in animals; cited from earlier work

Compound | Oral bioavailability
CO[C@@]1(NC(=O)Cc2cccs2)C(=O)N2C(C(=O)O)=C(COC(N)=O)CS[C@@H]21 [cefoxitin] | less than five percent

test system: MDCK cell monolayers; experiment: Effect on transepithelial electrical resistance (TEER) across MDCK cell monolayers; type: cell-based, canine; details: 30-minute treatment
Description: as §1
TEER (expressed as Ω·cm^2) serves as a measure of functional integrity of tight junctions. TEER was measured by an EVOM Epithelial Tissue Voltohmeter (World Precision Instruments, Sarasota, Fla.) and an Endohm-12 electrode (World Precision Instruments, Sarasota, Fla.). TEER values of MDCK cells that formed a functional monolayer ranged between 150-250 Ω·cm^2.
Experiments were initiated by adding 0.5 mL of HBSS supplemented with 10 mM HEPES, pH 7.4 (transport buffer) containing compound or vehicle to the apical side of the TRANSWELL™ multi-well plate. […] Data from each experiment were normalized to the response from the vehicle and were reported as the mean±SD of three experiments performed in triplicate.
The effect of akylphosphocholines on TEER was evaluated at several concentrations, and the concentration that caused a 50% decrease in TEER with respect to the untreated control was defined as EC50 (Liu, D. Z., et al. (1999) J. Pharm. Sci. 88:1161-1168; Liu, D. Z., et al. (1999) J. Pharm. Sci. 88:1169-1174).

Compound | Effect on TEER
COc1ccc2c(c1)CCC1C2CCC2(C)C(NCCCCCCN3C(=O)C=CC3=O)CCC12 (centres unmarked) [U-73,122, reference compound] | potently decreased TEER
COc1ccc2c(c1)CC[C@@H]1[C@@H]2CC[C@]2(C)[C@@H](NCCCCCCN3C(=O)CCC3=O)CC[C@@H]12 [U-73,343, reference compound] | did not decrease TEER

same assay, conditions: Canis lupus familiaris, 0.5 h; MDCK cells, apical, 30-minute incubation at 37° C., mean ± SD; read-out: EC50 (concentration required to decrease TEER by fifty percent)

Compound | EC50 [µM]
O=c1oc2ccccc2cc1[N+](=O)[O-] [3-nitrocoumarin, reference compound] | 24 ± 1
CCCCCCCCCCCCOP(=O)([O-])OCC[N+](C)(C)C [C12, Dodecylphosphocholine] | 733 ± 32
CCCCCCCCCCCCCCOP(=O)([O-])OCC[N+](C)(C)C [C14] | 44 ± 11
CCCCCCCCCCCCCCCCOP(=O)([O-])OCC[N+](C)(C)C [C16, Hexadecylphosphocholine] | 29 ± 5
CCCCCCCCCCCCCCCCCCOP(=O)([O-])OCC[N+](C)(C)C [C18] | 59 ± 8
CCCCCCCCCCCCCCCCCCCCOP(=O)([O-])OCC[N+](C)(C)C [C20] | 71 ± 8
COc1ccc2c(c1)CCC1C2CCC2(C)C(NCCCCCCN3C(=O)C=CC3=O)CCC12 (centres unmarked) [U-73,122, reference compound] | 6 ± 2

same assay, conditions: Canis lupus familiaris, MDCK, 2 h; 30 μM, over a two-hour period; read-out: TEER, % of control values

Compound | activity at 30 µM [%]
CCCCCCCCCCCCCCCCOP(=O)([O-])OCC[N+](C)(C)C [C16, Hexadecylphosphocholine] | < 10
